Reference: US20250213531A1, “5-MEO-DTM FOR THE TREATMENT OF BIPOLAR DISORDER” (GH RESEARCH IRELAND LIMITED, priority 2022, published 2025)

Tested on: patients with postpartum depression (PPD)
Test: Clinical trial of inhaled 5-MeO-DMT (IDR) in postpartum depression, one patient (6 mg then 12 mg)
Details: n=1
Protocol: The single-arm, open-label clinical trial will involve 15 adult female patients with clinically diagnosed postpartum depression (PPD).
The second dose (12 mg) will only be administered if: • a. […] The 6 mg dose was safe and well-tolerated according to the investigator, • c. Any psychoactive effects (PsE) of the prior dose have subsided, and • d. Pre-dose vital parameters and forced expiratory volume in one second (FEV1) are in normal range, or if outside of the normal range, are not clinically significant according to the investigator. • 3. Similarly, a third dose (18 mg) will only be administered if: • a. […] The 12 mg dose was safe and well-tolerated according to the investigator, and • c. Any PsE of the prior dose have subsided, and • d. Pre-dose vital parameters and forced expiratory volume in one second (FEV1) are in normal range, or if outside of the normal range, are not clinically significant according to the investigator.
The patients will be assessed for a peak psychedelic experience (based on a patient-scored visual analogue scale, the PE scale), sedation, and other endpoints after dosing. Follow-up visits are planned for Day 1, and Day 7 after the dosing day.

COc1ccc2[nH]cc(CCN(C)C)c2c1 [5-MeO-DMT]
standard criteria for MADRS response (at least 50% improvement) and MADRS remission (total score <=10): fulfilled
tolerability of inhalation procedure: well tolerated with no inhalation-related adverse events
adverse events (cramping left abdominal pain, headache) (Day 0): mild, short-lasting and resolved spontaneously
ECG, safety laboratory analyses, CADSS (ECG 3 hours, laboratory 7 days, CADSS 3 hours, 1 day, 7 days): unremarkable
